From the supplement of paper PMC7661543 come the findings set out here.

What all share (assay): relative cell number vs DMSO control (72 h) (% of DMSO); higher = less growth inhibition (more cells)
Holding throughout (details): sgRNA knockout: sgNT

One experiment concerns HCC-38. The method, then:
(§1)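 QMAP-Seq: a pool of 5 breast cancer cell lines (ZR-75-1, SKBR3, HCC-38, MDA-MB-231, BT-20), each carrying 12 doxycycline-inducible Cas9 sgRNA perturbations (11 knockouts plus non-targeting sgNT), was treated with compounds for 72 h at four 10-fold doses (10 nM-10 uM or 1 nM-1 uM range). Barcodes were amplified and sequenced, and cell number was interpolated from 293T spike-in standard curves. The result is expressed as % of the median of DMSO wells. Two biological replicates.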

Another experiment has as its system ZR-75-1. The method, then:
as §1

A further experiment relates to MDA-MB-231. As for the experimental part:
as §1

Another experiment relates to SKBR3. The method, then: as §1
A further experiment has as its system BT-20. The method, then:
as §1

Each structure is given as a SMILES string. ± gives the standard deviation of the averaged measurements.

Turning to `Cc1[nH]c(/C=C2\C(=O)Nc3ccc(S(=O)(=O)N(C)c4cccc(Cl)c4)cc32)c(C)c1C(=O)N1CCN(C)CC1`, the relative cell number in the experiment on HCC-38 (10 nM) came out at 109 ± 14; in the experiment on HCC-38 (100 nM), 92.58 ± 0.79; in the experiment with HCC-38 (1000 nM) it was 90.6 ± 7.8; with HCC-38 (10000 nM), 55.2 ± 1.4; with ZR-75-1 (10 nM) it was 95.1 ± 14; in the experiment on ZR-75-1 (100 nM), 97.4 ± 3.6. The relative cell number in the experiment with ZR-75-1 (1000 nM) was found to be 54 ± 27; with ZR-75-1 (10000 nM), 37.5 ± 6; in the experiment with MDA-MB-231 (10 nM), 134 ± 62; in the experiment with MDA-MB-231 (100 nM), 94.8 ± 19; in the experiment with MDA-MB-231 (1000 nM) it was 95.3 ± 23; in the experiment on MDA-MB-231 (10000 nM) it was 42.5 ± 11. The relative cell number in the experiment on SKBR3 (10 nM) came to 90.1 ± 7.7; with SKBR3 (100 nM), 102 ± 8.9; with SKBR3 (1000 nM), 87.4 ± 16; in the experiment with SKBR3 (10000 nM), 59.6 ± 16; with BT-20 (10 nM), 89.8 ± 4.6; with BT-20 (100 nM), 95 ± 19. In addition, the relative cell number amounted to 74.8 ± 2.8 in the experiment with BT-20 (1000 nM) and 60.9 ± 35 in the experiment on BT-20 (10000 nM).

On to `CC/C(=C(\c1ccc(O)cc1)c1ccc(OCCN(C)C)cc1)c1ccccc1` [4-Hydroxytamoxifen], for which the relative cell number came to 94.8 ± 10 in the experiment with HCC-38 (10 nM); 93.2 ± 5.7 with HCC-38 (100 nM); 90.4 ± 20 with HCC-38 (1000 nM); 81.5 ± 14 in the experiment on HCC-38 (10000 nM); 95.8 ± 9.6 in the experiment with ZR-75-1 (10 nM); 61.5 ± 4.8 in the experiment on ZR-75-1 (100 nM). Further, the relative cell number with ZR-75-1 (1000 nM) came out at 70.2 ± 15; in the experiment with ZR-75-1 (10000 nM) it was 34.6 ± 8.6; in the experiment on MDA-MB-231 (10 nM), 95.8 ± 17; in the experiment on MDA-MB-231 (100 nM), 88.2 ± 7.9; in the experiment on MDA-MB-231 (1000 nM) it was 100 ± 3.5; in the experiment on MDA-MB-231 (10000 nM), 96.2 ± 9. In addition, the relative cell number with SKBR3 (10 nM) came out at 104 ± 19; in the experiment on SKBR3 (100 nM), 100 ± 45; with SKBR3 (1000 nM), 80 ± 2.2; in the experiment with SKBR3 (10000 nM) it was 40.6 ± 10; with BT-20 (10 nM), 96.8 ± 8.9; in the experiment with BT-20 (100 nM), 88.3 ± 28. The figures for the relative cell number in the experiment with BT-20 (1000 nM) and in the experiment with BT-20 (10000 nM) were 106 ± 10 and 74.5 ± 21, respectively.

Take `Cc1cnc(Nc2ccc(OCCN3CCCC3)cc2)nc1Nc1cccc(S(=O)(=O)NC(C)(C)C)c1`: the relative cell number in the experiment with HCC-38 (10 nM) was 99.1 ± 2.6; with HCC-38 (100 nM), 90.301 ± 0.055; in the experiment on HCC-38 (1000 nM), 68.7 ± 8.1; in the experiment with HCC-38 (10000 nM), 11.7 ± 2.2; in the experiment with ZR-75-1 (10 nM) it was 105 ± 22; with ZR-75-1 (100 nM) it was 108 ± 2.4. Moreover, the relative cell number in the experiment with ZR-75-1 (1000 nM) was determined as 71.3 ± 26; in the experiment on ZR-75-1 (10000 nM), 10.8 ± 5.8; in the experiment on MDA-MB-231 (10 nM), 88.9 ± 26; with MDA-MB-231 (100 nM), 116 ± 5.9; with MDA-MB-231 (1000 nM), 64.9 ± 6.9; in the experiment on MDA-MB-231 (10000 nM) it was 5.85 ± 0.9. The relative cell number in the experiment on SKBR3 (10 nM) worked out at 89 ± 48; in the experiment on SKBR3 (100 nM) it was 68.7 ± 15; in the experiment with SKBR3 (1000 nM) it was 75.4 ± 15; in the experiment with SKBR3 (10000 nM) it was 16.9 ± 0.89; in the experiment with BT-20 (10 nM), 99.9 ± 19; with BT-20 (100 nM) it was 92.6 ± 1.8. Also, the relative cell number with BT-20 (1000 nM) was determined as 81.3 ± 12; in the experiment with BT-20 (10000 nM), 42.5 ± 4.4.

For `COc1cc2ncnc(Nc3ccc(F)c(Cl)c3)c2cc1OCCCN1CCOCC1` [Gefitinib], the relative cell number was determined as 84.4 ± 11 in the experiment with HCC-38 (10 nM); 105.03 ± 0.0072 in the experiment on HCC-38 (100 nM); 105 ± 18 in the experiment on HCC-38 (1000 nM); 92.41 ± 0.25 in the experiment with HCC-38 (10000 nM); 101 ± 13 with ZR-75-1 (10 nM); 116 ± 49 with ZR-75-1 (100 nM). Also, the relative cell number in the experiment on ZR-75-1 (1000 nM) was found to be 51.61 ± 0.097; in the experiment with ZR-75-1 (10000 nM), 44.4 ± 13; in the experiment with MDA-MB-231 (10 nM) it was 83.3 ± 31; with MDA-MB-231 (100 nM) it was 76.2 ± 23; with MDA-MB-231 (1000 nM) it was 81.2 ± 19; in the experiment with MDA-MB-231 (10000 nM), 108 ± 12. Also, the relative cell number in the experiment with SKBR3 (10 nM) worked out at 78.7 ± 18; in the experiment on SKBR3 (100 nM), 95.3 ± 31; in the experiment on SKBR3 (1000 nM), 48.5 ± 17; in the experiment with SKBR3 (10000 nM) it was 36.6 ± 7.8; with BT-20 (10 nM), 95.4 ± 5.2; with BT-20 (100 nM), 80.8 ± 9.2. The relative cell number worked out at 86.3 ± 16 with BT-20 (1000 nM) and 62.8 ± 13 with BT-20 (10000 nM).
